# What was measured:
# Gemcitabine = compound: Nc1ccn([C@@H]2O[C@H](CO)[C@@H](O)C2(F)F)c(=O)n1 [Gemcitabine]; conditions: max 0.3 µM
# Procedure, shortened: (§1)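 Cancer cell lines in 1536-well plates (7.5 μl DMEM/F12 or RPMI, 10% FBS) were held 24 hours at 37°C and 5% CO2 and then dosed for 72 hours at a final DMSO of typically 0.2%. Viability was taken from CellTiter-Glo 2.0 luminescence, scaled between blank-well and DMSO-well means. Curves were fitted as two-parameter logistic models with a non-linear mixed effects model, from which the single-agent IC50 was taken.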
# Trametinib = compound: CC(=O)Nc1cccc(-n2c(=O)n(C3CC3)c(=O)c3c(Nc4ccc(I)cc4F)n(C)c(=O)c(C)c32)c1 [Trametinib]; conditions: max 1 µM
# Procedure, shortened: as §1
# Doxorubicin = compound: COc1cccc2c1C(=O)c1c(O)c3c(c(O)c1C2=O)C[C@@](O)(C(=O)CO)C[C@@H]3O[C@H]1C[C@H](N)[C@H](O)[C@H](C)O1 [Doxorubicin]; conditions: max 1 µM
# Procedure, shortened: as §1
# Prexasertib = compound: COc1cccc(OCCCN)c1-c1cc(Nc2cnc(C#N)cn2)n[nH]1 [Prexasertib]; conditions: max 1 µM
# Procedure, shortened: as §1
# AZD1775 = compound: C=CCn1c(=O)c2cnc(Nc3ccc(N4CCN(C)CC4)cc3)nc2n1-c1cccc(C(C)(C)O)n1 [AZD1775]; conditions: max 3 µM
# Procedure, shortened: as §1
# Taselisib = compound: Cc1nc(-c2cn3c(n2)-c2ccc(-c4cnn(C(C)(C)C(N)=O)c4)cc2OCC3)n(C(C)C)n1 [Taselisib]; conditions: max 10 µM
# Procedure, shortened: as §1
# SN-38 = compound: CCc1c2c(nc3ccc(O)cc13)-c1cc3c(c(=O)n1C2)COC(=O)[C@]3(O)CC [SN-38]; conditions: max 0.3 µM
# Procedure, shortened: as §1
# SG3199 = compound: CC1=CN2[C@@H](C1)C=NC3=CC(=C(C=C3C2=O)OC)OCCCCCOC4=C(C=C5C(=C4)N=C[C@@H]6CC(=CN6C5=O)C)OC [SG3199]; conditions: max 0.001 µM
# Procedure, shortened: as §1
# Gefitinib = compound: COc1cc2ncnc(Nc3ccc(F)c(Cl)c3)c2cc1OCCCN1CCOCC1 [Gefitinib]; conditions: max 10 µM
# Procedure, shortened: as §1
# AZD8186 = compound: C[C@@H](Nc1cc(F)cc(F)c1)c1cc(C(=O)N(C)C)cc2c(=O)cc(N3CCOCC3)oc12 [AZD8186]; conditions: max 10 µM
# Procedure, shortened: as §1
# Savolitinib = compound: C[C@@H](c1ccc2nccn2c1)n1nnc2ncc(-c3cnn(C)c3)nc21 [Savolitinib]; conditions: max 1 µM
# Procedure, shortened: as §1
# AZD2811 = compound: CCN(CCO)CCCOc1ccc2c(Nc3cc(CC(=O)Nc4cccc(F)c4)[nH]n3)ncnc2c1 [AZD2811]; conditions: max 1 µM
# Procedure, shortened: as §1
# AZD5991 = compound: Cc1c2c(nn1C)CSCc1cc(n(C)n1)CSc1cc(c3ccccc3c1)OCCCc1c(C(=O)O)n(C)c3c-2c(Cl)ccc13 [AZD5991]; conditions: max 1 µM
# Procedure, shortened: as §1
# 5-Fluorouracil = compound: O=c1[nH]cc(F)c(=O)[nH]1 [5-Fluorouracil]; conditions: max 20 µM
# Procedure, shortened: as §1
# AZD1390 = compound: CC(C)n1c(=O)n(C)c2cnc3cc(F)c(-c4ccc(OCCCN5CCCCC5)nc4)cc3c21 [AZD1390]; conditions: max 0.3 µM
# Procedure, shortened: as §1
# AZD7648 = compound: Cc1cc2ncnn2cc1Nc1ncc2c(n1)n(C1CCOCC1)c(=O)n2C [AZD7648]; conditions: max 10 µM
# Procedure, shortened: as §1
# Carboplatin = compound: C1CC(C1)(C(=O)[O-])C(=O)[O-].N.N.[Pt+2] [Carboplatin]; conditions: max 10 µM
# Procedure, shortened: as §1
# Lapatinib = compound: CS(=O)(=O)CCNCc1ccc(-c2ccc3ncnc(Nc4ccc(OCc5cccc(F)c5)c(Cl)c4)c3c2)o1 [Lapatinib]; conditions: max 10 µM
# Procedure, shortened: as §1
# AZD0156 = compound: CN(C)CCCOc1ccc(-c2ccc3ncc4c(c3c2)n(C2CCOCC2)c(=O)n4C)cn1 [AZD0156]; conditions: max 3 µM
# Procedure, shortened: as §1
# [1] = compound: O=C(Nc1ccc2[nH]nc(-c3ccncc3)c2c1)[C@@H]1CCN(CC(=O)N2CCN(c3ccc(-c4ncccn4)cc3)CC2)C1; conditions: max 5 µM
# Procedure, shortened: as §1
# Venetoclax = compound: CC1(C)CCC(CN2CCN(c3ccc(C(=O)NS(=O)(=O)c4ccc(NCC5CCOCC5)c([N+](=O)[O-])c4)c(Oc4cnc5[nH]ccc5c4)c3)CC2)=C(c2ccc(Cl)cc2)C1 [Venetoclax]; conditions: max 1 µM
# Procedure, shortened: as §1
# AZD6738 = compound: C[C@@H]1COCCN1C2=NC(=NC(=C2)C3(CC3)[S@](=N)(=O)C)C4=C5C=CNC5=NC=C4 [AZD6738]; conditions: max 10 µM
# Procedure, shortened: as §1
# SRA737 = compound: N#Cc1cnc(Nc2cc(NC[C@H]3CNCCO3)c(C(F)(F)F)cn2)cn1 [SRA737]; conditions: max 10 µM
# Procedure, shortened: as §1
# AZD5153 = compound: COc1nnc2ccc(N3CCC(c4ccc(OCCN5CCN(C)C(=O)[C@H]5C)cc4)CC3)nn12 [AZD5153]; conditions: max 1 µM
# Procedure, shortened: as §1
# Paclitaxel = compound: CC(=O)O[C@H]1C(=O)[C@@]2(C)[C@H]([C@H](OC(=O)c3ccccc3)[C@]3(O)C[C@H](OC(=O)[C@H](O)[C@@H](NC(=O)c4ccccc4)c4ccccc4)C(C)=C1C3(C)C)[C@]1(OC(C)=O)CO[C@@H]1C[C@@H]2O [Paclitaxel]; conditions: max 3 µM
# Procedure, shortened: as §1
# AZD4320 = compound: CN(CC[C@H](CSC1=CC=CC=C1)NC2=C(C=C(C=C2)S(=O)(=O)NC(=O)C3=CC=C(C=C3)N4CCC(CC4)[C@H](C5=CC=CC=C5C6=CC=C(C=C6)Cl)O)S(=O)(=O)C(F)(F)F)CCO [AZD4320]; conditions: max 1 µM
# Procedure, shortened: as §1
# Alisertib = compound: COc1cc(Nc2ncc3c(n2)-c2ccc(Cl)cc2C(c2c(F)cccc2OC)=NC3)ccc1C(=O)O [Alisertib]; conditions: max 10 µM
# Procedure, shortened: as §1
# Olaparib = compound: O=C(c1cc(Cc2n[nH]c(=O)c3ccccc23)ccc1F)N1CCN(C(=O)C2CC2)CC1 [Olaparib]; conditions: max 10 µM
# Procedure, shortened: as §1
# Selumetinib = compound: Cn1cnc2c(F)c(Nc3ccc(Br)cc3Cl)c(C(=O)NOCCO)cc21 [Selumetinib]; conditions: max 10 µM
# Procedure, shortened: as §1
# Crizotinib = compound: C[C@@H](Oc1cc(-c2cnn(C3CCNCC3)c2)cnc1N)c1c(Cl)ccc(F)c1Cl [Crizotinib]; conditions: max 10 µM
# Procedure, shortened: as §1
# Palbociclib = compound: CC(=O)c1c(C)c2cnc(Nc3ccc(N4CCNCC4)cn3)nc2n(C2CCCC2)c1=O [Palbociclib]; conditions: max 10 µM
# Procedure, shortened: as §1
# MK-2206 = compound: NC1(c2ccc(-c3nc4ccn5c(=O)[nH]nc5c4cc3-c3ccccc3)cc2)CCC1 [MK-2206]; conditions: max 10 µM
# Procedure, shortened: as §1
# Dasatinib = compound: CC1=C(C(=CC=C1)Cl)NC(=O)C2=CN=C(S2)NC3=CC(=NC(=N3)C)N4CCN(CC4)CCO [Dasatinib]; conditions: max 2 µM
# Procedure, shortened: as §1
# Etoposide = compound: COc1cc([C@@H]2c3cc4c(cc3[C@@H](O[C@@H]3O[C@@H]5CO[C@@H](C)O[C@H]5[C@H](O)[C@H]3O)[C@H]3COC(=O)[C@H]23)OCO4)cc(OC)c1O [Etoposide]; conditions: max 10 µM
# Procedure, shortened: as §1
# AZD5363 = compound: C1CN(CCC1(C(=O)N[C@@H](CCO)C2=CC=C(C=C2)Cl)N)C3=NC=NC4=C3C=CN4 [AZD5363]; conditions: max 10 µM
# Procedure, shortened: as §1
Cell Line,"IC50, cell viability 72 h (Gemcitabine)","IC50, cell viability 72 h (Trametinib)","IC50, cell viability 72 h (Doxorubicin)","IC50, cell viability 72 h (Prexasertib)","IC50, cell viability 72 h (AZD1775)","IC50, cell viability 72 h (Taselisib)","IC50, cell viability 72 h (SN-38)","IC50, cell viability 72 h (SG3199)","IC50, cell viability 72 h (Gefitinib)","IC50, cell viability 72 h (AZD8186)","IC50, cell viability 72 h (Savolitinib)","IC50, cell viability 72 h (AZD2811)","IC50, cell viability 72 h (AZD5991)","IC50, cell viability 72 h (5-Fluorouracil)","IC50, cell viability 72 h (AZD1390)","IC50, cell viability 72 h (AZD7648)","IC50, cell viability 72 h (Carboplatin)","IC50, cell viability 72 h (Lapatinib)","IC50, cell viability 72 h (AZD0156)","IC50, cell viability 72 h [1]","IC50, cell viability 72 h (Venetoclax)","IC50, cell viability 72 h (AZD6738)","IC50, cell viability 72 h (SRA737)","IC50, cell viability 72 h (AZD5153)","IC50, cell viability 72 h (Paclitaxel)","IC50, cell viability 72 h (AZD4320)","IC50, cell viability 72 h (Alisertib)","IC50, cell viability 72 h (Olaparib)","IC50, cell viability 72 h (Selumetinib)","IC50, cell viability 72 h (Crizotinib)","IC50, cell viability 72 h (Palbociclib)","IC50, cell viability 72 h (MK-2206)","IC50, cell viability 72 h (Dasatinib)","IC50, cell viability 72 h (Etoposide)","IC50, cell viability 72 h (AZD5363)"
HCC-78 (Lung Adenocarcinoma),32.7 nM,> 1000 nM,493 nM,99.6 nM,1380 nM,5890 nM,7.04 nM,> 1 nM,> 10000 nM,> 10000 nM,> 1000 nM,> 1000 nM,> 1000 nM,> 20000 nM,> 300 nM,> 10000 nM,> 10000 nM,> 10000 nM,> 3000 nM,> 5000 nM,> 1000 nM,> 10000 nM,> 10000 nM,> 1000 nM,> 3000 nM,> 1000 nM,> 10000 nM,> 10000 nM,> 10000 nM,9580 nM,> 10000 nM,> 10000 nM,> 2000 nM,2350 nM,> 10000 nM
HO-1-N-1 (Oral Cavity Carcinoma),6.22 nM,417 nM,84.2 nM,60.1 nM,1520 nM,1960 nM,4.4 nM,> 1 nM,8370 nM,> 10000 nM,> 1000 nM,409 nM,788 nM,17600 nM,> 300 nM,> 10000 nM,> 10000 nM,7300 nM,> 3000 nM,2260 nM,> 1000 nM,5590 nM,> 10000 nM,202 nM,< 3 nM,> 1000 nM,68.7 nM,> 10000 nM,> 10000 nM,5580 nM,> 10000 nM,> 10000 nM,581 nM,1260 nM,> 10000 nM
HOS (Osteosarcoma),> 300 nM,> 1000 nM,792 nM,53.6 nM,1030 nM,> 10000 nM,29.4 nM,> 1 nM,> 10000 nM,> 10000 nM,> 1000 nM,> 1000 nM,> 1000 nM,> 20000 nM,> 300 nM,> 10000 nM,> 10000 nM,> 10000 nM,> 3000 nM,> 5000 nM,> 1000 nM,8430 nM,> 10000 nM,996 nM,97.2 nM,> 1000 nM,> 10000 nM,> 10000 nM,> 10000 nM,> 10000 nM,> 10000 nM,> 10000 nM,> 2000 nM,4340 nM,> 10000 nM
HT-1376 (Bladder Carcinoma),> 300 nM,> 1000 nM,> 1000 nM,> 1000 nM,> 3000 nM,> 10000 nM,> 300 nM,> 1 nM,> 10000 nM,> 10000 nM,> 1000 nM,> 1000 nM,> 1000 nM,> 20000 nM,> 300 nM,> 10000 nM,> 10000 nM,> 10000 nM,> 3000 nM,> 5000 nM,> 1000 nM,> 10000 nM,> 10000 nM,> 1000 nM,> 3000 nM,> 1000 nM,> 10000 nM,> 10000 nM,> 10000 nM,> 10000 nM,> 10000 nM,> 10000 nM,> 2000 nM,> 10000 nM,> 10000 nM
TE-15 (Esophageal Squamous Cell Carcinoma),25.5 nM,693 nM,884 nM,40.6 nM,1840 nM,2230 nM,9.74 nM,> 1 nM,–,> 10000 nM,> 1000 nM,> 1000 nM,> 1000 nM,> 20000 nM,> 300 nM,> 10000 nM,> 10000 nM,712 nM,> 3000 nM,3950 nM,> 1000 nM,4290 nM,4130 nM,658 nM,9.03 nM,> 1000 nM,> 10000 nM,> 10000 nM,8210 nM,> 10000 nM,> 10000 nM,> 10000 nM,136 nM,4550 nM,> 10000 nM

# Reference: the supplement of paper PMC11061612
